Common to all, as to assay type: cell-based
Common to all, as to details: human PBMCs, 24 hours incubation

One assay relates to IL12p40. The assay can be described thus: PBMC cytokine profiling assay, IL12-p40 induction. On the procedure: (§1) Certain compounds disclosed herein we tested according to the procedure described below. Additionally, certain reference compounds were prepared and tested along with the compounds of the present disclosure.
(§2) Compounds were dissolved and stored in DMSO (Sigma-Aldrich, St. Louis, MO) at 10 mM concentration.
(§3) Cryopreserved human PBMCs isolated from healthy donors were purchased from StemCell Technologies (Vancouver, Canada). Cell culture medium used was RPMI with L-Glutamine (Mediatech, Manassas, VA) supplemented with 10% fetal bovine serum (Hyclone, GE Healthcare, Logan, UT) and Penicillin-Streptomycin (Mediatech). Human TNFα, IL12p40, and IFNα2a 384-well Assay capture plates, standards, buffers and processing reagents were obtained from MesoScale Discovery Technologies (MSD; Rockville, MD).
(§4) Cryopreserved human PBMCs (1×10e8 cells/ml) were thawed at 37° C. and resuspended in 25 mL warm cell culture medium. The cells were pelleted at 200×g (Beckman Avanti J-E) for 5 min and resuspended in 20 mL of fresh culture media. Cells were counted using a Cellometer (Nexcelcom Bioscience), adjusted to 2×10e6 cells, and incubated for 2 hours in an incubator set at 37° C., 5% CO2 to recover from cryopreservation. Compounds were serially diluted in DMSO at half-log steps to generate a 10-point dose range. Using a Bravo pipette equipped with a 384 well head (Agilent), 0.4 μL of compound was transferred to each well of a 384 well black, clear bottom plate (Greiner Bio-One, Germany) containing 30 μL of cell culture medium. Recovered PBMCs were then dispensed into the assay plate at 50 μL per well (100k cells/well) using the MicroFlow multichannel dispenser (Biotek). Final DMSO concentration was 0.5%. DMSO was used as the negative control. The plates were incubated for 24 hours at 37° C. PBMCs in the assay plate were pelleted by centrifugation (Beckman Avanti J-E) at 200×g for 5 min.
(§5) Using a Biomek FX 384 well pipetting station (Beckman), conditioned culture medium (CCM) from the assay plate was transferred to MSD capture plates customized for each cytokine. For IFNα and IL12-p40 detection, 25 μL and 20 μL of CCM were added directly to each capture plate, respectively. For TNFα detection, CCM was diluted 1:9 in fresh culture medium, and 20 μL of diluted CCM was used. Serially diluted calibration standards for each cytokine were used to generate standard curves and establish assay linearity. The plates were sealed and incubated overnight at 4° C. in a plate shaker (Titer Plate) set at 200 rpm. On the following day, antibodies specific for each cytokine were diluted 1:50 in MSD Diluent 100 antibody dilution buffer. Diluted antibodies were added to corresponding capture plates at 10 μL/well, and incubated at RT for 1-2 hrs in the shaker. The plates were washed with PBST buffer (3×, 60 μl/well) using a Biotek Multiflow plate washer. MSD Read Buffer diluted to 2× in deionized water and 35 μL/well was added via Biomek FX instrument. The plates were read immediately in a MSD6000 reader. Data were normalized to positive and negative controls in each assay plate. AC50 values represent compound concentrations at half-maximal effect based on normalized percent activation and calculated by non-linear regression using Pipeline Pilot software (Accelrys, San Diego, CA).

A further assay concerns IFNα. The assay can be described thus: PBMC cytokine profiling assay, IFNα induction. On the procedure:
as §1, §2, §3, §4, §5

For the next assay, the system named is TNFα. The experiment in a line: PBMC cytokine profiling assay, TNFα induction. On the procedure:
as §1, §2, §3, §4, §5

The structures appear in SMILES notation.

As for `CCCC[C@@H](Nc1nc(N)nc2cccnc12)C(O)CF` (single isomer, unassigned) [Example 88], the AC50 in the assay on IL12p40 (Homo sapiens, PBMC, 24 h) was determined as 0.37 µM; with IFNα (Homo sapiens, PBMC, 24 h), 35.6 µM; in the assay with TNFα (Homo sapiens, PBMC, 24 h), 0.4 µM.
On to `CCCC[C@@H](Nc1nc(N)nc2cccnc12)C(O)C(F)F` (single isomer, unassigned) [Example 90], for which the AC50 in the assay with IL12p40 (Homo sapiens, PBMC, 24 h) worked out at 0.62 µM; with IFNα (Homo sapiens, PBMC, 24 h), 7.8 µM; in the assay with TNFα (Homo sapiens, PBMC, 24 h), 0.86 µM.
For `CCCC[C@](C)(Nc1nc(N)nc2cccnc12)C(C)O` (single isomer, unassigned) [Example 92], in that order: 4.7 µM, above 50 µM and 4.3 µM.
In the case of `CCCC[C@@](C)(Nc1nc(N)nc2cc(F)cnc12)C(C)O` (single isomer, unassigned) [Example 94], the AC50 was 0.7 µM in the assay on IL12p40, 2.2 µM in the assay with IFNα and 1 µM with TNFα.
For `CCCC[C@@](C)(Nc1nc(N)nc2cccnc12)C(C)O` (single isomer, unassigned) [Example 96], in that order: 1 µM, 2.8 µM and 1.1 µM.
For the compound `CCCCNc1nc(N)nc2cccnc12` [Example 1B, N^4-butylpyrido[3,2-d]pyrimidine-2,4-diamine], the AC50 is 2 µM in the assay with IL12p40 (Homo sapiens, PBMC, 24 h); 2.7 µM in the assay on IFNα (Homo sapiens, PBMC, 24 h); 3.9 µM in the assay on TNFα (Homo sapiens, PBMC, 24 h).
Regarding `CCCC(C)Nc1nc(N)nc2cccnc12` (stereo not drawn) [Example 2B, N^4-(pentan-2-yl)pyrido[3,2-d]pyrimidine-2,4-diamine], the AC50 in the assay with IL12p40 (Homo sapiens, PBMC, 24 h) was determined as 2.8 µM; in the assay on IFNα (Homo sapiens, PBMC, 24 h), 4.3 µM; with TNFα (Homo sapiens, PBMC, 24 h) it was 5.4 µM.
For `CC(C)C[C@@H](CO)Nc1nc(N)nc2cccnc12` [Example 3B, (S)-2-((2-aminopyrido[3,2-d]pyrimidin-4-yl)amino)-4-methylpentan-1-ol], in that order: 15.5 µM, 14.5 µM and 29.4 µM.
With `Nc1nc(N[C@H](CO)CC2CC2)c2ncccc2n1` [Example 4B, (S)-2-((2-aminopyrido[3,2-d]pyrimidin-4-yl)amino)-3-cyclopropylpropan-1-ol], the AC50 in the assay with IL12p40 (Homo sapiens, PBMC, 24 h) was 5.4 µM; with IFNα (Homo sapiens, PBMC, 24 h), 5.9 µM; in the assay on TNFα (Homo sapiens, PBMC, 24 h), 9.1 µM.
On the same counts, the results for `CCC[C@H](Nc1nc(N)nc2cccnc12)C(=O)OC` [Example 5B, (S)-methyl 2-((2-aminopyrido[3,2-d]pyrimidin-4-yl)amino)pentanoate] are above 50 µM, 41 µM and above 50 µM.
For `CCC[C@@H](CO)Nc1nc(N)nc2c(Cl)cc(C)nc12` [Example 6B, (S)-2-((2-amino-8-chloro-6-methylpyrido[3,2-d]pyrimidin-4-yl)amino)pentan-1-ol], the AC50 was above 50 µM in the assay on IL12p40 (Homo sapiens, PBMC, 24 h); above 50 µM in the assay on IFNα (Homo sapiens, PBMC, 24 h); above 50 µM in the assay on TNFα (Homo sapiens, PBMC, 24 h).
As for `Nc1nc(N[C@H](CO)c2ccccc2)c2ncccc2n1` [Example 7, (S)-2-((2-aminopyrido[3,2-d]pyrimidin-4-yl)amino)-2-phenylethanol], the AC50 in the assay on IL12p40 (Homo sapiens, PBMC, 24 h) was above 50 µM; with IFNα (Homo sapiens, PBMC, 24 h), 34 µM; with TNFα (Homo sapiens, PBMC, 24 h), above 50 µM.
Take `CCC[C@H](CO)Nc1nc(N)nc2cccnc12` [Example 8, (R)-2-((2-aminopyrido[3,2-d]pyrimidin-4-yl)amino)pentan-1-ol]: the AC50 in the assay on IL12p40 (Homo sapiens, PBMC, 24 h) is 19.4 µM; in the assay with IFNα (Homo sapiens, PBMC, 24 h) it was above 50 µM; in the assay with TNFα (Homo sapiens, PBMC, 24 h), 20.2 µM.
As for `CC[C@H](C)[C@@H](CO)Nc1nc(N)nc2cccnc12` [Example 9, (2S,3S)-2-((2-aminopyrido[3,2-d]pyrimidin-4-yl)amino)-3-methylpentan-1-ol], the AC50 was found to be 1.1 µM in the assay on IL12p40 (Homo sapiens, PBMC, 24 h); 7.2 µM in the assay with IFNα (Homo sapiens, PBMC, 24 h); 1.9 µM in the assay on TNFα (Homo sapiens, PBMC, 24 h).
With `CSCC[C@@H](CO)Nc1nc(N)nc2cccnc12` [Example 10, (S)-2-((2-aminopyrido[3,2-d]pyrimidin-4-yl)amino)-4-(methylthio)butan-1-ol], the AC50 in the assay with IL12p40 (Homo sapiens, PBMC, 24 h) is 23.8 µM; with IFNα (Homo sapiens, PBMC, 24 h) it was above 50 µM; with TNFα (Homo sapiens, PBMC, 24 h), 29.2 µM.
`CCCCCNc1nc(N)nc2cccnc12` [Example 11, N^4-pentylpyrido[3,2-d]pyrimidine-2,4-diamine]: the AC50 in the assay on IL12p40 (Homo sapiens, PBMC, 24 h) turned out to be 6 µM; in the assay on IFNα (Homo sapiens, PBMC, 24 h) it was 6.9 µM; with TNFα (Homo sapiens, PBMC, 24 h), 10.1 µM.
For `Nc1nc(NCCO)c2ncccc2n1` [Example 12, 2-((2-aminopyrido[3,2-d]pyrimidin-4-yl)amino)ethanol], in that order: above 50 µM, above 50 µM and above 50 µM.
As for `Nc1nc(NCCCO)c2ncccc2n1` [Example 13, 3-((2-aminopyrido[3,2-d]pyrimidin-4-yl)amino)propan-1-ol], the AC50 with IL12p40 (Homo sapiens, PBMC, 24 h) is above 50 µM; with IFNα (Homo sapiens, PBMC, 24 h) it was above 50 µM; with TNFα (Homo sapiens, PBMC, 24 h) it was above 50 µM.
As to `CCCC[C@@H](CO)Nc1nc(N)nc2cccnc12` [Example 14, (S)-2-((2-aminopyrido[3,2-d]pyrimidin-4-yl)amino)hexan-1-ol], the AC50 in the assay with IL12p40 (Homo sapiens, PBMC, 24 h) was 0.94 µM; in the assay with IFNα (Homo sapiens, PBMC, 24 h) it was 1.6 µM; in the assay on TNFα (Homo sapiens, PBMC, 24 h), 1.1 µM.
In the case of `Nc1nc(NCC2CCCO2)c2ncccc2n1` (stereo not drawn) [Example 16, N^4-((tetrahydrofuran-2-yl)methyl)pyrido[3,2-d]pyrimidine-2,4-diamine], the AC50 in the assay on IL12p40 (Homo sapiens, PBMC, 24 h) is above 50 µM; in the assay on IFNα (Homo sapiens, PBMC, 24 h), above 50 µM; in the assay on TNFα (Homo sapiens, PBMC, 24 h), above 50 µM.
Turning to `Nc1nc(NC(CO)CO)c2ncccc2n1` [Example 17, 2-((2-aminopyrido[3,2-d]pyrimidin-4-yl)amino)propane-1,3-diol], the AC50 is above 50 µM in the assay on IL12p40 (Homo sapiens, PBMC, 24 h); above 50 µM in the assay with IFNα (Homo sapiens, PBMC, 24 h); above 50 µM with TNFα (Homo sapiens, PBMC, 24 h).
Take `CCC[C@@H](CO)Nc1nc(N)nc2cc(Br)cnc12` [Example 18F, (S)-2-((2-amino-7-bromopyrido[3,2-d]pyrimidin-4-yl)amino)pentan-1-ol]: the AC50 in the assay on IL12p40 (Homo sapiens, PBMC, 24 h) turned out to be 15.2 µM; with IFNα (Homo sapiens, PBMC, 24 h) it was 30.6 µM; with TNFα (Homo sapiens, PBMC, 24 h), 16.1 µM.
On to `CCC[C@@H](CO)Nc1nc(N)nc2cc(Cl)cnc12` [Example 19E, (S)-2-((2-amino-7-chloropyrido[3,2-d]pyrimidin-4-yl)amino)pentan-1-ol], for which the AC50 is 2.5 µM in the assay with IL12p40 (Homo sapiens, PBMC, 24 h); 21.6 µM in the assay with IFNα (Homo sapiens, PBMC, 24 h); 3.3 µM in the assay on TNFα (Homo sapiens, PBMC, 24 h).
As for `CCC[C@@H](CO)Nc1nc(N)nc2cc(C)cnc12` [Example 20, (S)-2-((2-amino-7-methylpyrido[3,2-d]pyrimidin-4-yl)amino)pentan-1-ol], the AC50 amounted to 2.8 µM in the assay on IL12p40 (Homo sapiens, PBMC, 24 h); 5.4 µM in the assay with IFNα (Homo sapiens, PBMC, 24 h); 3.2 µM in the assay with TNFα (Homo sapiens, PBMC, 24 h).
On to `CCC[C@@H](CO)Nc1nc(N)nc2cc(CC)cnc12` [Example 21, (S)-2-((2-amino-7-ethylpyrido[3,2-d]pyrimidin-4-yl)amino)pentan-1-ol], for which the AC50 in the assay with IL12p40 (Homo sapiens, PBMC, 24 h) worked out at 2.3 µM; in the assay on IFNα (Homo sapiens, PBMC, 24 h), 4.8 µM; with TNFα (Homo sapiens, PBMC, 24 h), 3.1 µM.
With `CCC[C@@H](CO)Nc1nc(N)nc2cc(C#N)cnc12` [Example 22, (S)-2-amino-4-((1-hydroxypentan-2-yl)amino)pyrido[3,2-d]pyrimidine-7-carbonitrile], the AC50 was above 50 µM in the assay on IL12p40 (Homo sapiens, PBMC, 24 h); 35.9 µM in the assay with IFNα (Homo sapiens, PBMC, 24 h); above 50 µM in the assay on TNFα (Homo sapiens, PBMC, 24 h).
In the case of `CCCC[C@H](CO)Nc1nc(N)nc2cc(Cl)cnc12` [Example 23C, (R)-2-((2-amino-7-chloropyrido[3,2-d]pyrimidin-4-yl)amino)hexan-1-ol], the AC50 with IL12p40 (Homo sapiens, PBMC, 24 h) is 25.7 µM; with IFNα (Homo sapiens, PBMC, 24 h), above 50 µM; with TNFα (Homo sapiens, PBMC, 24 h), 24.7 µM.
`CCC[C@@H](CO)Nc1nc(N)nc2cc(F)c(Cl)nc12` [Example 24D]: the AC50 in the assay on IL12p40 (Homo sapiens, PBMC, 24 h) is 3.1 µM; in the assay on IFNα (Homo sapiens, PBMC, 24 h), 18.4 µM; with TNFα (Homo sapiens, PBMC, 24 h), 3.4 µM.
`CCCCNc1nc(N)nc2c(C)ccnc12` [Example 25E, N^4-butyl-8-methylpyrido[3,2-d]pyrimidine-2,4-diamine]: the AC50 in the assay with IL12p40 (Homo sapiens, PBMC, 24 h) worked out at 19.7 µM; in the assay on IFNα (Homo sapiens, PBMC, 24 h), 12.3 µM; with TNFα (Homo sapiens, PBMC, 24 h), 20 µM.
